The values below come from US20230242473A1, “THYROMIMETICS” (Autobahn Therapeutics, Inc., priority 2020, published 2023).

As a reminder, the EC50 is the concentration giving half of the maximal effect. Higher therefore signals a less potent agent.

Molecules are shown by their SMILES.

One test concerns the target T1, TRβ (Homo sapiens, UniProt P10828).
T1 construct: expressed in transfected cells; host or cells: HEK293-derived reporter cell line
T1 sequence (P10828 217-461 limits assumed): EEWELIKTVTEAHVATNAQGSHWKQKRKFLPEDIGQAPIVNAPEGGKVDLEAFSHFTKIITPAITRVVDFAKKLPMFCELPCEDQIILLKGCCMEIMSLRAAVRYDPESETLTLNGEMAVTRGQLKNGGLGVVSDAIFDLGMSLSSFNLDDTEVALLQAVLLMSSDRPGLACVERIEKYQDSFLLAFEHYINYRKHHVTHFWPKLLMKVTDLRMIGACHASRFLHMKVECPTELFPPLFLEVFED
Nature of the test: Thyroid-hormone reporter-gene assay, TRβ (Gal4 hybrid, luciferase). The conditions noted are these: for EC50: HEK293-derived reporter cells, 24 hr treatment, luciferase readout; for T3-SI, selectivity index (SI) calculated as EC50 (TRα)/EC50 (TRβ): TRα vs TRβ reporter-gene assays. It counts as cell-based. As for the experimental part:
(§1) Compounds were tested for thyroid-hormone receptor activity using TR reporter-gene assays. Reporter cells used in the assays express a TR-receptor hybrid (either TRα or TRO) in which the native N-terminal DNA binding domain (DBD) has been replaced with that of the yeast Gal4 DBD. The reporter gene, firefly luciferase, is functionally linked to the Gal4 upstream activation sequence (UAS). Both cell lines were derived from human embryonic kidney (HEK293).
(§2) Step 1: A suspension of reporter cells was prepared in cell recovery medium containing 10% charcoal-stripped FBS, and dispensed into assay plates. The plates were pre-incubated for 6 hours in a cell culture incubator (37° C./5% CO2/85% humidity).
(§3) These intermediate stocks were subsequently diluted directly into compound screening medium containing 10% charcoal-stripped FBS to generate “2×-concentration” treatment media (containing 0.2, 0.4 or 0.8% DMSO).
(§4) Step 3: At the end of the pre-incubation period, culture media were discarded from the assay plates, and all wells received 100 μl of compound screening medium. 100 μl of each of the previously prepared “2×-concentration” treatment media were dispensed into duplicate assay wells, thereby achieving the desired final treatment concentrations. The final concentration of DMSO in all assay wells was 0.1, 0.2 or 0.4%. Assay plates were incubated for 24 hr in a cell culture incubator (37° C./5% CO2/85% humidity).
(§5) Step 4: At the 24 h assay endpoint, treatment media were discarded and 100 µl/well of luciferase detection reagent was added. Relative luminometer units (RLUs) were quantified from each assay well.

A further test has as its target T2, TRα (Homo sapiens, UniProt P10827).
T2 construct: expressed in transfected cells; host or cells: HEK293-derived reporter cell line
T2 sequence (P10827 128-410 isoform P10827-2 limits assumed): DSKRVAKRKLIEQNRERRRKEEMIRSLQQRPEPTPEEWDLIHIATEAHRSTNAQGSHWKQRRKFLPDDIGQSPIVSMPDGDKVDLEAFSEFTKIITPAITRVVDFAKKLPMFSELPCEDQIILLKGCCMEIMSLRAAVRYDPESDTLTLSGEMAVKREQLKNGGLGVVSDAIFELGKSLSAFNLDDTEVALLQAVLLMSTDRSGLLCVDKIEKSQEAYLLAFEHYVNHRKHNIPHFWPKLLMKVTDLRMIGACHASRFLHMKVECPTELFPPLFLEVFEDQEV
Nature of the test: Thyroid-hormone reporter-gene assay, TRα (Gal4 hybrid, luciferase). It counts as cell-based. The settings on record: HEK293-derived reporter cells, 24 hr treatment, luciferase readout. As for the experimental part: as §1, §2, §3, §4, §5

Test [1] has as its target T3, recombinant human FAAH (rhFAAH) (Homo sapiens, UniProt O00519).
T3 construct: purchased Cayman Chemical (Ann Arbor, Mich., USA)
T3 sequence (O00519 1-579): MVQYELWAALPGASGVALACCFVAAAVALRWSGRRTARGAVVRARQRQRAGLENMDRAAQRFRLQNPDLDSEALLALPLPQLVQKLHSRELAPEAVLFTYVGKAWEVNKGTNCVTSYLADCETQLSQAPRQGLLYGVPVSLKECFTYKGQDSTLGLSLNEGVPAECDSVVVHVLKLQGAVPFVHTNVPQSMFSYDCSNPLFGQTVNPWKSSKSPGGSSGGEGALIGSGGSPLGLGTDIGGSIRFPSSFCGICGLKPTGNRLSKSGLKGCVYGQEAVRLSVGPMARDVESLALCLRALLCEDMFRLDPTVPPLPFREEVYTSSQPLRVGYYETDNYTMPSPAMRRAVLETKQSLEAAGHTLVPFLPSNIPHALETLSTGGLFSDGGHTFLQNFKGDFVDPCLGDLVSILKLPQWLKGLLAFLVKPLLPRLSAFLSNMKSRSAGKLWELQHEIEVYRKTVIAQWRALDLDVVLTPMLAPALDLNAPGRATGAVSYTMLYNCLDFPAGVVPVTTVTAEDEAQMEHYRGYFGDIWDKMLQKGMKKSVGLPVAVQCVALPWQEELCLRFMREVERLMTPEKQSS
Nature of the test: FAAH substrate evaluation (formation of acid metabolite, LC-MS/MS). The format is in vitro ADME. The conditions noted are these: 0.5 ng/μL rhFAAH, 1 μM test compound, pH 8.0, room temperature, 0-60 minutes. The procedure: Purified recombinant human FAAH (rhFAAH) was purchased from Cayman Chemical (Ann Arbor, Mich., USA). The total volume for each incubation was 400 μL containing a final 0.5 ng/μL rhFAAH, 1 μM test compound, 1.25% ethanol or 1 μM PF-3845 (FAAH inhibitor), and 0.1% bovine serum albumin in Tris-EDTA buffer at pH 8.0). The positive control was LL-341001. The incubation was conducted at the room temperature. At 0, 5, 15, 30 and 60 minutes, an aliquot of 30 μL reaction mixtures was removed and mixed with 300 μL acetonitrile containing 5 ng/mL terfenadine and 10 ng/mL tolbutamide as internal standards to quench the reaction. The resulting mixture was centrifuged at 4000 rpm, 4° C. for 15 minutes, and 100 μL supernatant was ready for LC-MS/MS analysis to measure the formation of acid metabolite.
Acquity Ultra Performance LC system from Waters was used for sample analysis. The chromatography was performed on a reverse phase Kinetex 2.6 μm C18 column, 2.1×30 mm, 100 Å. The mobile phase A comprised of 0.10% formic acid in water and mobile phase B comprised of 0.1% formic acid in acetonitrile with a 2-min run time at the flow rate of 0.8 mL/min for the acid metabolite from positive control or a 1.5 min run time at the flow rate of 0.9 mL/min for the acid metabolite of test compounds. The mass spectrometer (API-5500 and API Q Trap 4000 Applied Biosystems/MDS SCIEX Instruments, Framingham, Mass., USA) was operated under ESI positive or negative ion MRM mode.
The formation of acid metabolite was monitored and quantified using one calibration point of 1 μM. The observed rate constant (ke) for the acid metabolite formation was calculated by plotting the metabolite concentration versus time of incubation with the slope being ke and is shown in Table 4.

Turning to `Cc1cc(OCC(=O)O)c2c(c1Cc1ccc(O)c(C(C)C)c1)CCC2` [Compound 6, 2-((7-(4-hydroxy-3-isopropylbenzyl)-6-methyl-2,3-dihydro-1H-inden-4-yl)oxy)acetic acid], on TRβ, the EC50 lay within 10 to 100 nM and the “T3-SI, selectivity index (SI) calculated as EC50 (TRα)/EC50 (TRβ)” value (from here on “T3-SI, selectivity index (SI) calculated”) is on record as “++ (++3X<T3−SI≤30X)”. On TRα, this compound yielded an EC50 of 100 to 1000 nM.

For the compound `CC(C)c1c(O)ccc(Cc2ccc(OCC(=O)O)cc2Cl)c1F` [Compound 20, 2-(3-chloro-4-(2-fluoro-4-hydroxy-3-isopropylbenzyl)phenoxy)acetic acid], on TRβ, the EC50 is 100 to 1000 nM and the “T3-SI, selectivity index (SI) calculated” value was “++ (++3X<T3−SI≤30X)”. The EC50 at TRα was over 1000 nM.

As for `CC(C)c1cc(Cc2cc(F)c(OCC(=O)O)cc2C(C)C)ccc1O` [Compound 36, 2-(2-fluoro-4-(4-hydroxy-3-isopropylbenzyl)-5-isopropylphenoxy)acetic acid], at TRβ, the EC50 lay in the range of 100 to 1000 nM and the “T3-SI, selectivity index (SI) calculated” value is reported as “++ (++3X<T3−SI≤30X)”. The compound also gave an EC50 at TRα of 100 to 1000 nM.

In the case of `CC(C)c1cc(Cc2cc(F)c(OCC(=O)O)c(F)c2Cl)ccc1O` [Compound 38, 2-(3-chloro-2,6-difluoro-4-(4-hydroxy-3-isopropylbenzyl)phenoxy)acetic acid], the EC50 at TRβ was over 1000 nM.

`C=C(C)c1cc(OCC(=O)NC)ccc1Cc1ccc(O)c(C(C)C)c1F` [Compound 41, 2-(4-(2-fluoro-4-hydroxy-3-isopropylbenzyl)-3-(prop-1-en-2-yl)phenoxy)-N-methylacetamide]: in test [1], the “ke, observed rate constant for the acid metabolite formation” value is “A (A = ke is less than 2.0 and more than or equal to 0.05)”.

For the compound `CC(C)c1c(O)ccc(Cc2ccc(OCC(=O)O)c3c2C(C)CC3)c1F` (stereo not drawn) [Compound 4, 2-((7-(2-fluoro-4-hydroxy-3-isopropylbenzyl)-1-methyl-2,3-dihydro-1H-inden-4-yl)oxy)acetic acid], the EC50 on TRβ and on TRα was over 1000 nM throughout.

As for `Cc1cc(OCC(=O)O)c2c(c1Cc1ccc(O)c(C(C)C)c1F)CCC2` [Compound 10, 2-((7-(2-fluoro-4-hydroxy-3-isopropylbenzyl)-6-methyl-2,3-dihydro-1H-inden-4-yl)oxy)acetic acid], on TRβ, the EC50 was under 10 nM and the “T3-SI, selectivity index (SI) calculated” value was “++ (++3X<T3−SI≤30X)”. Further, the EC50 at TRα is 10 to 100 nM.

With `CC(C)c1cc(Cc2cc(F)c(OCC(=O)O)c3c2CCC3)ccc1O` [Compound 16, 2-((5-fluoro-7-(4-hydroxy-3-isopropylbenzyl)-2,3-dihydro-1H-inden-4-yl)oxy)acetic acid], at TRβ, the EC50 was over 1000 nM and the “T3-SI, selectivity index (SI) calculated” value is on record as “++ (++3X<T3−SI≤30X)”. The EC50 at TRα is over 1000 nM.

As to `CC(C)c1c(O)ccc(Cc2ccc(OCC(=O)O)c3c2CCC3)c1F` [Compound 2, 2-((7-(2-fluoro-4-hydroxy-3-isopropylbenzyl)-2,3-dihydro-1H-inden-4-yl)oxy)acetic acid], on TRβ, the EC50 is 100 to 1000 nM and the “T3-SI, selectivity index (SI) calculated” value is “++ (++3X<T3−SI≤30X)”. Besides, the EC50 on TRα was over 1000 nM.

For `Cc1cc(OCC(=O)O)c2c(c1Cc1ccc(O)c(C(C)c3ccc(F)cc3)c1)CCC2` (stereo not drawn) [Compound 8, 2-((7-(3-(1-(4-fluorophenyl)ethyl)-4-hydroxybenzyl)-6-methyl-2,3-dihydro-1H-inden-4-yl)oxy)acetic acid], on TRβ, the EC50 was under 10 nM and the “T3-SI, selectivity index (SI) calculated” value is on record as “++ (++3X<T3−SI≤30X)”. Besides, at TRα, the EC50 is 10 to 100 nM.

`CC(C)c1c(O)ccc(Cc2cc(F)c(OCC(=O)O)cc2Cl)c1F` [Compound 29, 2-(5-chloro-2-fluoro-4-(2-fluoro-4-hydroxy-3-isopropylbenzyl)phenoxy)acetic acid]: at TRβ, the EC50 lay within 100 to 1000 nM and the “T3-SI, selectivity index (SI) calculated” value is “+++ (+++T3−SI>30X)”. The compound further displayed an EC50 on TRα of over 1000 nM.

As for `CC(C)c1cc(Cc2cc(F)c(OCC(=O)O)cc2C(F)(F)F)ccc1O` [Compound 18, 2-(2-fluoro-4-(4-hydroxy-3-isopropylbenzyl)-5-(trifluoromethyl)phenoxy)acetic acid], the EC50 on TRβ and at TRα was over 1000 nM throughout. The “T3-SI, selectivity index (SI) calculated” value on TRβ is “+ (+T3−SI≤3X)”.

As for `CC(C)c1cc(OCC(=O)O)ccc1Cc1ccc(O)c(C(C)C)c1F` [Compound 25, 2-(4-(2-fluoro-4-hydroxy-3-isopropylbenzyl)-3-isopropylphenoxy)acetic acid], at TRβ, the EC50 is 10 to 100 nM and the “T3-SI, selectivity index (SI) calculated” value is “++ (++3X<T3−SI≤30X)”. For the same compound, the EC50 on TRα is 100 to 1000 nM.

`CC(C)c1c(O)ccc(Cc2ccc(OCC(=O)O)c(F)c2C(C)C)c1F` [Compound 31, 2-(2-fluoro-4-(2-fluoro-4-hydroxy-3-isopropylbenzyl)-3-isopropylphenoxy)acetic acid]: the EC50 at TRβ and at TRα was over 1000 nM in each case. The “T3-SI, selectivity index (SI) calculated” value at TRβ is reported as “++ (++3X<T3−SI≤30X)”.

Turning to `C=C(C)c1cc(OCC(=O)O)ccc1Cc1ccc(O)c(C(C)C)c1F` [Compound 23, 2-(4-(2-fluoro-4-hydroxy-3-isopropylbenzyl)-3-(prop-1-en-2-yl)phenoxy)acetic acid], the EC50 is 100 to 1000 nM at TRβ and over 1000 nM on TRα. Besides, the “T3-SI, selectivity index (SI) calculated” value on TRβ is on record as “++ (++3X<T3−SI≤30X)”.

Regarding `CC(C)c1cc(Cc2ccc(OCC(=O)O)c3ccccc23)ccc1O` [Compound 14, 2-((4-(4-hydroxy-3-isopropylbenzyl)naphthalen-1-yl)oxy)acetic acid], the EC50 on TRβ was 100 to 1000 nM; at TRα, over 1000 nM. In addition, the “T3-SI, selectivity index (SI) calculated” value at TRβ is on record as “++ (++3X<T3−SI≤30X)”.

Take `CC(C)c1c(O)ccc(Cc2ccc(OCC(=O)O)c(F)c2Cl)c1F` [Compound 27, 2-(3-chloro-2-fluoro-4-(2-fluoro-4-hydroxy-3-isopropylbenzyl)phenoxy)acetic acid]: the EC50 at TRβ and at TRα was over 1000 nM in each case.
